Five compounds from ChEMBL document CHEMBL2439947, “Intermolecular interaction of voriconazole analogues with model membrane by DSC and NMR, and their antifungal activity using NMR based metabolic profiling” (2013) can be followed below.

Values after ≈ are worked out from the molar mass of the structure shown. Active and inactive are the calls of the source. No cut-off for these calls is given here.

One may read the MIC as the lowest concentration found to suppress growth.

Test [1] concerns Candida albicans. The test can be described thus: Antifungal activity against Candida albicans ATCC 10231 after 48 hrs by tube dilution method. The note with it: ATCC 10231, 48 h. The format is functional.
In test [2] the test system is Lipid bilayer. The test can be described thus: Binding affinity to DPPC liposomes assessed as melting temperature at 1:2 drug to DPPC liposome molar ratio by differential scanning calorimetric analysis.
The test system of test [3] is Candida albicans. Kind of test: Antifungal activity against Candida albicans ATCC 10231 assessed as acetate level after 24 hrs by [1H] NMR spectroscopic analysis. The format is functional.
Test [4] has as its system Lipid bilayer. Kind of test: Binding affinity to DPPC liposomes at 1:5 drug to DPPC liposome molar ratio by [13C] NMR spectroscopic analysis.
In test [5] the test system is Candida albicans. Kind of test: Antifungal activity against Candida albicans ATCC 10231 assessed as acetate level after 18 hrs by [1H] NMR spectroscopic analysis. The format is functional.
Test [6] has as its system Lipid bilayer. The test can be described thus: Binding affinity to DPPC liposomes assessed as melting temperature at 1:10 drug to DPPC liposome molar ratio by differential scanning calorimetric analysis.
The subject of test [7] is Candida albicans. Kind of test: Antifungal activity against Candida albicans ATCC 10231 assessed as ethanol level after 32 hrs by [1H] NMR spectroscopic analysis. The format is functional.
Test [8] has as its system Candida albicans. The test can be described thus: Antifungal activity against Candida albicans ATCC 10231 assessed as acetate level after 32 hrs by [1H] NMR spectroscopic analysis. The format is functional.
Test [9] deals with Candida albicans. The test can be described thus: Antifungal activity against Candida albicans ATCC 10231 after 24 hrs by broth microdilution method. The format is functional. The note with it: ATCC 10231, 24 h. In general terms: In broth dilution the organism is exposed to a series of concentrations in liquid medium.
Test [10] relates to Candida albicans. The test can be described thus: Antifungal activity against Candida albicans ATCC 10231 assessed as ethanol level after 18 hrs by [1H] NMR spectroscopic analysis. The format is functional.
The test system of test [11] is Lipid bilayer. The test can be described thus: Binding affinity to DPPC liposomes assessed as change in pre-transition temperature at 1:10 drug to DPPC liposome molar ratio by differential scanning calorimetric analysis.
The subject of test [12] is Lipid bilayer. The test can be described thus: Binding affinity to DPPC liposomes at 1:5 drug to DPPC liposome molar ratio by [1H] NMR spectroscopic analysis.
Test [13] has as its system Lipid bilayer. The test can be described thus: Binding affinity to DPPC liposomes at 1:2 to 1:10 drug to DPPC liposome molar ratio by [31P] NMR spectroscopic analysis.
For test [14], the system named is Lipid bilayer. The test can be described thus: Binding affinity to DPPC liposomes after 2 hrs by double reciprocal plot analysis.
For test [15], the system named is Lipid bilayer. Kind of test: Binding affinity to DPPC liposomes assessed as change in pre-transition temperature at 1:5 drug to DPPC liposome molar ratio by differential scanning calorimetric analysis.
Test [16] relates to Lipid bilayer. Kind of test: Binding affinity to DPPC liposomes by 2D-NOESY spectroscopic analysis.
The subject of test [17] is Candida albicans. Kind of test: Antifungal activity against Candida albicans ATCC 10231 assessed as ethanol level after 24 hrs by [1H] NMR spectroscopic analysis. The format is functional.
Test [18] concerns Candida albicans. Kind of test: Antifungal activity against Candida albicans ATCC 10231 assessed as pyruvate level after 18 hrs by [1H] NMR spectroscopic analysis. The format is functional.
For test [19], the system named is Candida albicans. Kind of test: Antifungal activity against Candida albicans ATCC 10231 assessed as pyruvate level after 24 hrs by [1H] NMR spectroscopic analysis. The format is functional.
For test [20], the system named is Lipid bilayer. The test can be described thus: Binding affinity to DPPC liposomes assessed as melting temperature at 1:5 drug to DPPC liposome molar ratio by differential scanning calorimetric analysis. On the technique in general: DSC measures the heat that a sample takes up or gives off during a temperature scan.
The test system of test [21] is Candida albicans. The test can be described thus: Antifungal activity against Candida albicans ATCC 10231 assessed as pyruvate level after 32 hrs by [1H] NMR spectroscopic analysis. The format is functional.
The subject of test [22] is Lipid bilayer. Kind of test: Binding affinity to DPPC liposomes assessed as change in pre-transition temperature at 1:2 drug to DPPC liposome molar ratio by differential scanning calorimetric analysis.
Test [23] has as its system Lipid bilayer. Kind of test: Binding affinity to DPPC liposomes after 2 hrs by spectrophotometric analysis relative to control.

In the case of `C[C@@H](c1ncncc1F)[C@](O)(Cn1cncn1)c1ccc(F)cc1F` [VORICONAZOLE], the MIC in the test on Candida albicans [1] and against Candida albicans [9] was 1 µg/mL (≈ 2.86 µM) each time. The Tm worked out at 37.4 °C in the test on Lipid bilayer [2], 38.5 °C in the test with Lipid bilayer [6] and 38.5 °C with Lipid bilayer [20]. The Activity came to 2 µg/mL in the test with Candida albicans [3]; 3 µg/mL with Candida albicans [5]; 1 µg/mL in the test on Candida albicans [7]; 2 µg/mL in the test with Candida albicans [8]; 2 µg/mL in the test with Candida albicans [10]; 1 µg/mL in the test with Candida albicans [17]. The Activity with Candida albicans [18], in the test with Candida albicans [19] and in the test on Candida albicans [21] was 1 µg/mL throughout. In addition, the outcome in the test with Lipid bilayer [4], in the test on Lipid bilayer [11], in the test with Lipid bilayer [12], with Lipid bilayer [15], with Lipid bilayer [16] and in the test on Lipid bilayer [22] was Active. The result in the test with Lipid bilayer [13] was inactive. The Kapp in the test on Lipid bilayer [14] was determined as 0.0543 M⁻¹.
In the case of `C[C@@H](c1ncncc1F)[C@@](Cn1cncn1)(OC(=O)c1ccc([N+](=O)[O-])cc1)c1ccc(F)cc1F` [VORICONAZOLE P-NITRO BENZOATE], the MIC with Candida albicans [1] was 8 µg/mL (≈ 16.1 µM); against Candida albicans [9], 7 µg/mL (≈ 14 µM). Moreover, the Tm with Lipid bilayer [2] worked out at 59.6 °C; in the test on Lipid bilayer [6] it was 60 °C; in the test on Lipid bilayer [20], 60 °C. For the same compound, the Activity in the test on Candida albicans [3] was determined as 7 µg/mL; in the test on Candida albicans [5], 8 µg/mL; with Candida albicans [7] it was 7 µg/mL; in the test on Candida albicans [8], 6 µg/mL; in the test on Candida albicans [10], 8 µg/mL; in the test on Candida albicans [17], 7 µg/mL. For the same compound, the Activity with Candida albicans [18], in the test on Candida albicans [19] and with Candida albicans [21] was 5 µg/mL in each case. For the same compound, the result in the test on Lipid bilayer [4], in the test on Lipid bilayer [11], in the test on Lipid bilayer [12], in the test on Lipid bilayer [13], with Lipid bilayer [15] and in the test with Lipid bilayer [16] was Active. In the test with Lipid bilayer [22], the result was Active. This compound also displayed a Kapp with Lipid bilayer [14] of 0.505 M⁻¹.
Take `COc1ccc(C(=O)O[C@@](Cn2cncn2)(c2ccc(F)cc2F)[C@@H](C)c2ncncc2F)cc1` [VORICONAZOLE P-METHOXY BENZOATE]: the MIC against Candida albicans [1] and against Candida albicans [9] was 3 µg/mL (≈ 6.21 µM) throughout. Moreover, the Activity amounted to 50% in the test on Lipid bilayer [23]; 3 µg/mL in the test on Candida albicans [3]; 4 µg/mL in the test with Candida albicans [5]; 2 µg/mL with Candida albicans [7]; 2 µg/mL in the test with Candida albicans [8]; 3 µg/mL in the test on Candida albicans [10]. For the same compound, the Activity in the test on Candida albicans [17] amounted to 3 µg/mL; in the test with Candida albicans [18], 2 µg/mL; in the test with Candida albicans [19], 1 µg/mL; in the test on Candida albicans [21] it was 1 µg/mL. Also, the results for the Tm in the test on Lipid bilayer [2], in the test with Lipid bilayer [6] and with Lipid bilayer [20] were 38.3 °C, 39.2 °C and 39.1 °C, respectively. Besides, the result in the test on Lipid bilayer [4], in the test with Lipid bilayer [11], in the test on Lipid bilayer [12], in the test with Lipid bilayer [13], in the test with Lipid bilayer [15] and with Lipid bilayer [16] was Active. In addition, the outcome in the test on Lipid bilayer [22] was Active. In the test on Lipid bilayer [14], the Kapp turned out to be 1.16 M⁻¹.
On to `C[C@@H](c1ncncc1F)[C@@](Cn1cncn1)(OC(=O)c1ccccc1)c1ccc(F)cc1F` [VORICONAZOLE BENZOATE], for which the MIC in the test on Candida albicans [1] and against Candida albicans [9] was 4 µg/mL (≈ 8.82 µM) throughout. For the same compound, the results for the Tm in the test with Lipid bilayer [2], in the test with Lipid bilayer [6] and in the test on Lipid bilayer [20] were 39.5 °C, 40.9 °C and 39.5 °C, respectively. Besides, the Activity is 4 µg/mL in the test with Candida albicans [3]; 6 µg/mL in the test on Candida albicans [5]; 4 µg/mL in the test with Candida albicans [7]; 4 µg/mL in the test with Candida albicans [8]; 5 µg/mL with Candida albicans [10]; 4 µg/mL with Candida albicans [17]. Also, the figures for the Activity in the test with Candida albicans [18], in the test on Candida albicans [19] and in the test with Candida albicans [21] were 4 µg/mL, 3 µg/mL and 3 µg/mL, respectively. The outcome in the test with Lipid bilayer [4], in the test on Lipid bilayer [12], in the test with Lipid bilayer [13], in the test with Lipid bilayer [15], in the test on Lipid bilayer [16] and in the test on Lipid bilayer [22] was Active. The T in the test with Lipid bilayer [11] was 30.1 °C. In the test on Lipid bilayer [14], this compound registered a Kapp of 1.22 M⁻¹.
For `Cc1ccc(C(=O)O[C@@](Cn2cncn2)(c2ccc(F)cc2F)[C@@H](C)c2ncncc2F)cc1` [VORICONAZOLE TOLUATE], the MIC against Candida albicans [1] and in the test with Candida albicans [9] was 5 µg/mL (≈ 10.7 µM) throughout. The Tm in the test with Lipid bilayer [2] is 32.4 °C; with Lipid bilayer [6] it was 34 °C; in the test with Lipid bilayer [20], 32.6 °C. In addition, the Activity worked out at 6 µg/mL in the test with Candida albicans [3]; 6 µg/mL with Candida albicans [5]; 4 µg/mL in the test on Candida albicans [7]; 5 µg/mL in the test with Candida albicans [8]; 5 µg/mL in the test on Candida albicans [10]; 5 µg/mL in the test with Candida albicans [17]. Also, the Activity was determined as 4 µg/mL in the test with Candida albicans [18], 3 µg/mL in the test with Candida albicans [19] and 3 µg/mL in the test with Candida albicans [21]. For the same compound, the outcome with Lipid bilayer [4], in the test on Lipid bilayer [11], with Lipid bilayer [12], with Lipid bilayer [13], in the test with Lipid bilayer [15] and in the test with Lipid bilayer [16] was Active. For the same compound, the result with Lipid bilayer [22] was Active. Also, the Kapp in the test with Lipid bilayer [14] was 0.871 M⁻¹.
